The text below walks through data of a flash point compilation (Sun et al. 2020).

With `CCC(C)Cc1ccccc1` (stereo unspecified) [1-phenyl-2-methylbutane], the flash point stood at 64 °C.

For `CC(=O)OC(C)c1ccccc1` (stereo unspecified) [1-phenylethylacetate], the flash point came to 91 °C.

Compound `CCC(=O)OC(C)c1ccccc1` (stereo unspecified) [1-phenylethylpropionate] showed a flash point of 106 °C.

As for `CCCS` [1-propanethiol], the flash point is -14 °C.

Take `CCCO` [1-propanol]: the flash point came to 23 °C.

For `CCCCCCCCCCCS` [1-undecanethiol], the flash point worked out at 109 °C.

For `C=CCCCCCCCCC` [1-undecene], the flash point amounted to 54 °C.

With `CC(C)(C)C(C)(C)C` [2,2,3,3-tetramethylbutane], the flash point is -0 °C.

Take `CCCC(C)(C)C(C)(C)C` [2,2,3,3-tetramethylhexane]: the flash point was found to be 31 °C.

Regarding `CC(C)C(C)C(C)(C)C` (stereo unspecified) [2,2,3,4-tetramethylpentane], the flash point turned out to be 11 °C.

In turn, `CCCC(C)C(C)(C)C` (stereo unspecified) [2,2,3-trimethylhexane] displayed a flash point of 15 °C.

The compound `CCC(C)C(C)(C)C` (stereo unspecified) [2,2,3-trimethylpentane] displayed a flash point of -3 °C.

Compound `CCC(C)(C)CC(C)(C)C` [2,2,4,4-tetramethylhexane] showed a flash point of 31 °C.

`CCC(C)CC(C)(C)C` (stereo unspecified) [2,2,4-trimethylhexane] displayed a flash point of 13 °C.

Take `CC(C)CC(C)(C)C` [2,2,4-trimethylpentane]: the flash point was -7 °C.

As to `CC(C)(C)CCC(C)(C)C` [2,2,5,5-tetramethylhexane], the flash point was found to be 16 °C.

Compound `CCCCC(C)(C)C` [2,2-dimethylhexane] returned a flash point of -3 °C.

Regarding `CCCCCCC(C)(C)C` [2,2-dimethyloctane], the flash point came out at 31 °C.

Compound `CCCC(C)(C)C` [2,2-dimethylpentane] registered a flash point of -23 °C.

Consider `CC(C)(C)C#N` [2,2-dimethylpropanenitrile], for which the flash point stood at 4 °C.

As to `CCC(C)C(C)(C)C(C)C` (stereo unspecified) [2,3,3,4-tetramethylhexane], the flash point worked out at 31 °C.

On to `CC(C)C(C)(C)C(C)C` [2,3,3,4-tetramethylpentane], for which the flash point is 11 °C.

Turning to `CCC(C)(C)C(C)C` [2,3,3-trimethylpentane], the flash point came to 5 °C.

Compound `CCC(C)(C)C(C)C(C)C` (stereo unspecified) [2,3,4,4-tetramethylhexane] gave a flash point of 31 °C.

`CCC(C)C(C)C(C)C` (stereo unspecified) [2,3,4-trimethylhexane] yielded a flash point of 15 °C.

For the compound `C=C(C)C(=C)C` [2,3-dimethyl-1,3-butadiene], the flash point was -22 °C.

With `CC(C)=C(C)C` [2,3-dimethyl-2-butene], the flash point was -20 °C.

Consider `CCCCC(C)C(C)C` (stereo unspecified) [2,3-dimethylheptane], for which the flash point turned out to be 15 °C.

Regarding `CCC(C)C(C)C` (stereo unspecified) [2,3-dimethylpentane], the flash point is -15 °C.

Regarding `C=C(C)CC(C)(C)C` [2,4,4-trimethyl-1-pentene], the flash point is -4 °C.

`CC(C)=CC(C)(C)C` [2,4,4-trimethyl-2-pentene] yielded a flash point of -1 °C.

In turn, `CC1CC(C)(C)CC1=O` (stereo unspecified) [2,4,4-trimethylcyclopentanone] showed a flash point of 43 °C.

For the compound `CC(C)CC(C)C` [2,4-dimethylpentane], the flash point is -12 °C.

In the case of `COC1C=CC(OC)O1` (stereo unspecified) [2,5-dimethoxy-2,5-dihydrofuran], the flash point is 47 °C.

In turn, `CC(C)CCC(C)C` [2,5-dimethylhexane] returned a flash point of -2 °C.

`C1=CC2C=CC1C2` [2,5-norbornadiene]: the flash point is -11 °C.

`CC(C)c1cccc(C(C)C)c1N` [2,6-diisopropylaniline] registered a flash point of 123 °C.

`CCC(C)CCCC(C)C` (stereo unspecified) [2,6-dimethyloctane]: the flash point was 34 °C.

On to `CC(C)(N)CO` [2-amino-2-methyl-1-propanol], for which the flash point worked out at 68 °C.

Compound `COC(CBr)OC` [2-bromo-1,1-dimethoxyethane] had a flash point of 51 °C.

Take `CCCCC(C)Br` (stereo unspecified) [2-bromohexane]: the flash point worked out at 40 °C.

Consider `CCCC(C)Br` (stereo unspecified) [2-bromopentane], for which the flash point was 21 °C.

`Cc1ccccc1Br` [2-bromotoluene] yielded a flash point of 78 °C.

On to `CCC(C)O` (stereo unspecified) [2-butanol], for which the flash point amounted to 24 °C.

Compound `CCC(C)=O` [2-butanone] came in with a flash point of -7 °C.

Consider `CC=CC#N` [2-butenenitrile], for which the flash point was determined as 17 °C.

Compound `CCCCC1CCCC1=O` (stereo unspecified) [2-butylcyclopentanone] registered a flash point of 68 °C.

`C=CC(=C)Cl` [2-chloro-1,3-butadiene] yielded a flash point of -20 °C.

`CC(C)(C)Cl` [2-chloro-2-methylpropane] yielded a flash point of -23 °C.

As for `CCCC(C)Cl` (stereo unspecified) [2-chloropentane], the flash point was found to be 1 °C.

Take `Oc1ccccc1Cl` [2-chlorophenol]: the flash point came out at 72 °C.

In turn, `CC(C)Cl` [2-chloropropane] displayed a flash point of -32 °C.

In the case of `Clc1ccccn1` [2-chloropyridine], the flash point was determined as 64 °C.

As for `Cc1ccccc1Cl` [2-chlorotoluene], the flash point turned out to be 47 °C.

In turn, `O=C1CCCC1C1CCCC1` (stereo unspecified) [2-cyclopentylcyclopentanone] gave a flash point of 90 °C.

`CCCCCCCCC(C)=O` [2-decanone]: the flash point is 85 °C.

The compound `CC#CCCCCCCC` [2-decyne] yielded a flash point of 53 °C.

In the case of `CN(C)CCO` [2-dimethylaminoethanol], the flash point is 41 °C.

For `CCCCCCCCCCC(C)O` (stereo unspecified) [2-dodecanol], the flash point was determined as 113 °C.

In turn, `CCOCCO` [2-ethoxyethanol] came in with a flash point of 42 °C.

`CCC(CC)CO` [2-ethyl-1-butanol] yielded a flash point of 57 °C.

Consider `CCCCC(CC)CO` (stereo unspecified) [2-ethyl-1-hexanol], for which the flash point is 74 °C.

With `CCc1cccc(C)c1N` [2-ethyl-6-methylaniline], the flash point was found to be 102 °C.

Compound `CCC(CC)C(=O)O` [2-ethylbutanoicacid] displayed a flash point of 87 °C.

`CCC1CCCCC1=O` (stereo unspecified) [2-ethylcyclohexanone] came in with a flash point of 59 °C.

With `CCc1ccccc1O` [2-ethylphenol], the flash point was 85 °C.

With `Cc1ccccc1F` [2-fluorotoluene], the flash point turned out to be 12 °C.

Turning to `CCCCCC(C)O` (stereo unspecified) [2-heptanol], the flash point amounted to 59 °C.

Turning to `CCC(C)I` (stereo unspecified) [2-iodobutane], the flash point turned out to be 24 °C.

`Cc1ccccc1I` [2-iodotoluene]: the flash point stood at 90 °C.

The compound `CC(C)c1ccccc1N` [2-isopropylaniline] gave a flash point of 95 °C.

`CC(C)C1CCCCC1=O` (stereo unspecified) [2-isopropylcyclohexanone] yielded a flash point of 65 °C.

`CC(C)c1ccccc1O` [2-isopropylphenol] gave a flash point of 89 °C.

The compound `COC1CCCCC1=O` (stereo unspecified) [2-methoxycyclohexanone] showed a flash point of 69 °C.

`CC1OCCO1` [2-methyl-1,3-dioxolane] showed a flash point of -2 °C.

As for `C=C(C)CCCCC` [2-methyl-1-heptene], the flash point is 10 °C.

In the case of `C=C(C)CCCC` [2-methyl-1-hexene], the flash point was -8 °C.

`CCCC(C)CO` (stereo unspecified) [2-methyl-1-pentanol] had a flash point of 51 °C.

Take `C=C(C)CO` [2-methyl-2-propen-1-ol]: the flash point amounted to 33 °C.

As for `C=C(C)C=O` [2-methyl-2-propenal], the flash point was -15 °C.

For `CCC(=O)C(C)C` [2-methyl-3-pentanone], the flash point amounted to 16 °C.

The compound `COc1ccccc1C` [2-methylanisole] gave a flash point of 51 °C.

Take `CCC(C)C` [2-methylbutane]: the flash point is -51 °C.

Turning to `CC1CCCCC1=O` (stereo unspecified) [2-methylcyclohexanone], the flash point amounted to 46 °C.

In the case of `CC1CCCCCCC1=O` (stereo unspecified) [2-methylcyclooctanone], the flash point came out at 71 °C.

The compound `CC1CCCC1=O` (stereo unspecified) [2-methylcyclopentanone] showed a flash point of 26 °C.

Consider `Cc1ccco1` [2-methylfuran], for which the flash point was -26 °C.

`CCCCCC(C)C` [2-methylheptane] returned a flash point of 4 °C.

In turn, `CCCCCCCC(C)C` [2-methylnonane] came in with a flash point of 38 °C.

`CCCC(C)C` [2-methylpentane] displayed a flash point of -32 °C.

Turning to `CCCC(C)C(=O)O` (stereo unspecified) [2-methylpentanoicacid], the flash point came to 91 °C.

The compound `CC(C)C=O` [2-methylpropanal] showed a flash point of -19 °C.

For `CC(C)C(=O)O` [2-methylpropanoicacid], the flash point was determined as 59 °C.

For `CC1CCCO1` (stereo unspecified) [2-methyltetrahydrofuran], the flash point is -12 °C.

For `Cc1cccs1` [2-methylthiophene], the flash point was 8 °C.

Consider `CCCC(C)[N+](=O)[O-]` (stereo unspecified) [2-nitropentane], for which the flash point was determined as 46 °C.

The compound `CCCCCCCC(C)O` (stereo unspecified) [2-nonanol] displayed a flash point of 82 °C.

`CC#CCCCCCC` [2-nonyne] showed a flash point of 39 °C.

For `C1=CC2CCC1C2` [2-norbornene], the flash point is -14 °C.

The compound `CCCCCCC(C)=O` [2-octanone] displayed a flash point of 56 °C.

`CCCC(C)S` (stereo unspecified) [2-pentanethiol] had a flash point of 15 °C.

As to `CCCC(C)O` (stereo unspecified) [2-pentanol], the flash point was determined as 34 °C.

In turn, `CC#CCC` [2-pentyne] had a flash point of -30 °C.

For `OCCc1ccccc1` [2-phenylethanol], the flash point came out at 102 °C.

In turn, `CC(=O)OCCc1ccccc1` [2-phenylethylacetate] showed a flash point of 102 °C.

For the compound `CCC(=O)OCCc1ccccc1` [2-phenylethylpropionate], the flash point was 113 °C.
